According to ChEMBL document CHEMBL1134878, “L-Cysteine based N-type calcium channel blockers: structure-activity relationships of the C-terminal lipophilic moiety, and oral analgesic efficacy in rat pain models” (Bioorg Med Chem Lett, 2002):

Assays:
[1] = (§1) In vitro inhibition of calcium influx (L-type blocking activity) in AtT-20 mouse pituitary tumor-derived cells; conditions: AtT20
[2] = Selectivity IC50 ratio of L-type blocking activity (AtT-20 mouse pituitary tumor-derived cells) to that of N-type blocking activity (IMR-32 human neuroblastoma cells)
[3] = biological target: T1, Voltage-dependent N-type calcium channel subunit alpha-1B (Homo sapiens, UniProt Q00975); experiment: In vitro inhibition of N-type calcium channel influx in IMR-32 human neuroblastoma cells; type: cell-based
Target sequence in this assay (Q00975 whole entry): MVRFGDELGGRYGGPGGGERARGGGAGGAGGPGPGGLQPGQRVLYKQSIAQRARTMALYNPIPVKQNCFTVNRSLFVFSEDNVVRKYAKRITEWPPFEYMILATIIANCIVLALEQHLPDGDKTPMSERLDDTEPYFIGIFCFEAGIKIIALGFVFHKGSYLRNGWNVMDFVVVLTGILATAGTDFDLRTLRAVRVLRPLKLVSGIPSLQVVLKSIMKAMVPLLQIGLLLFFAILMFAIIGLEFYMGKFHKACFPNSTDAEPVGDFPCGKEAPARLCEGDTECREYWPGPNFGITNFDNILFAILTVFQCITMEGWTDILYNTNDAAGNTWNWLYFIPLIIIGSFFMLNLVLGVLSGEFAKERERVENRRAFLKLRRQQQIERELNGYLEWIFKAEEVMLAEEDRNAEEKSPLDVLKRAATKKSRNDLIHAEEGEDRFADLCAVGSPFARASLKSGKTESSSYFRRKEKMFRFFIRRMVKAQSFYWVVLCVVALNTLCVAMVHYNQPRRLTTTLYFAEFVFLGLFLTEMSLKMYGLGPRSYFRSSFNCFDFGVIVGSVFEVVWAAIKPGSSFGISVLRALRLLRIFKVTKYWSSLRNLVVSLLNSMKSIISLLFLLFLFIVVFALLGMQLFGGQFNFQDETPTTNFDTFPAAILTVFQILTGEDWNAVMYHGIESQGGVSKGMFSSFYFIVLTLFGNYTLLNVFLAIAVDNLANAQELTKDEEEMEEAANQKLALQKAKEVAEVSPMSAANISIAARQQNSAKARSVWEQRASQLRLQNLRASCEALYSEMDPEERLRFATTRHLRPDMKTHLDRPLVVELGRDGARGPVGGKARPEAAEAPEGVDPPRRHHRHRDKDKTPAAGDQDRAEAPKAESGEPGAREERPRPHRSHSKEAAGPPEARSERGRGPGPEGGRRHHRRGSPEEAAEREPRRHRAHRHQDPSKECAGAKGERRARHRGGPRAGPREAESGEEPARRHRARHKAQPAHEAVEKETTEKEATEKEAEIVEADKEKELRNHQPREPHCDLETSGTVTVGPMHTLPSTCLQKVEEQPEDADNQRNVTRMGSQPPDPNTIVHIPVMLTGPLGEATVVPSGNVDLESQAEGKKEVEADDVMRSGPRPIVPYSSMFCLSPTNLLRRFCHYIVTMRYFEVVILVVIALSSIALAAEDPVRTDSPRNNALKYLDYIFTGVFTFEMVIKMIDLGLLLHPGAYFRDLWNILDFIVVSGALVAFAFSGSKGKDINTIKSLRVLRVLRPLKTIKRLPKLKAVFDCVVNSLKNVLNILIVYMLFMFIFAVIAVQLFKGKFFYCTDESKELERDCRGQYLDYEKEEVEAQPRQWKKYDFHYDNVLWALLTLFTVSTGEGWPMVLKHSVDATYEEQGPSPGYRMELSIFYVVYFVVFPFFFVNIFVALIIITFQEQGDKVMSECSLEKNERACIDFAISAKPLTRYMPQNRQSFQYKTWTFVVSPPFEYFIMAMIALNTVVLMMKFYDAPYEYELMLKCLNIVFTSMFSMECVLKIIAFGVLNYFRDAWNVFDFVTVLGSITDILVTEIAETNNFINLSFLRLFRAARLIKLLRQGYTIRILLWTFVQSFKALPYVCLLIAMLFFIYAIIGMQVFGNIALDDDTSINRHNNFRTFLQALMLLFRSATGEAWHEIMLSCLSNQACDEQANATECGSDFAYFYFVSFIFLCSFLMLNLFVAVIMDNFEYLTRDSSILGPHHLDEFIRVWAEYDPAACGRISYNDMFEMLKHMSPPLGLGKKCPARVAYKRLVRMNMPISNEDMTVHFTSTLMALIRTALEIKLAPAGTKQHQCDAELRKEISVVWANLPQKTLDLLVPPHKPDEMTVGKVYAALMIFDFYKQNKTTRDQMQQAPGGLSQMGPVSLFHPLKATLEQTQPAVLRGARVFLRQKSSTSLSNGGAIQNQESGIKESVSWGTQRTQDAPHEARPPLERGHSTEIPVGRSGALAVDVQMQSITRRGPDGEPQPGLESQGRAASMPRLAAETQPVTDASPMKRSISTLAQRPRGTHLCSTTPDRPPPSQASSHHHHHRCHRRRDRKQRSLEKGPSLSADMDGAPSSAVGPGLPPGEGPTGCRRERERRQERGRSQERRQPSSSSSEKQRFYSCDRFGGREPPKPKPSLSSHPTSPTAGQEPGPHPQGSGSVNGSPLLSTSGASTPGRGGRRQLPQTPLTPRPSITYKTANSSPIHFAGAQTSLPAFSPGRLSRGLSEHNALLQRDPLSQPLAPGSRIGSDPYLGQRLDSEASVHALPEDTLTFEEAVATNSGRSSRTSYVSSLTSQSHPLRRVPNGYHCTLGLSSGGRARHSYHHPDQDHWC

[4] = as §1; type: functional; conditions: AtT20
[5] = Selectivity IC50 ratio of L-type [Ca2+] channel blocking activity (AtT-20 mouse pituitary tumor-derived cells) to that of N-type blocking activity (IMR-32 human neuroblastoma cells)
[6] = tested on: Rattus norvegicus; experiment: Minimum effective oral dose required for the inhibition of paw flinching in rat formalin induced pain model; type: functional; conditions: read-out: MED
[7] = Partition coefficient (logP); type: physicochemical; conditions: octanol/water
[8] = tested on: Rattus norvegicus; experiment: Minimum effective oral dose required for the antinociceptive effects on thermal hyperalgesia induced by CCI (chronic constriction injury) of the sciatic nerve in rat; type: functional; conditions: read-out: MED
[9] = biological target: T1, Voltage-dependent N-type calcium channel subunit alpha-1B; experiment: Percentage inhibition of N-type calcium channel influx in IMR-32 human neuroblastoma cells at 3 uM; type: cell-based
Target sequence in this assay (Q00975 whole entry, looked up): as the sequence (Q00975 whole entry) above

SMILES	IC50 [1] [nM]	Ratio [2]	IC50 [3] [nM]	IC50 [4] [nM]	Ratio [5]	minimal effective dose [6] [mg/kg]	logP [7]	minimal effective dose [8] [mg/kg]	inhibition [9] [%]
CC(C)(C)OC(=O)N1CSC[C@H]1C(=O)N[C@@H](CSCC1CCCCC1)C(=O)N1CCN(Cc2ccccc2)CC1	1000	2.7	370						
CC(C)(C)OC(=O)N1CSC[C@H]1C(=O)N[C@@H](CSCC1CCCCC1)C(=O)NC1CCN(c2ccccc2)CC1	540	3.6	150						
CC(C)(C)OC(=O)N1CSC[C@H]1C(=O)N[C@@H](CSCC1CCCCC1)C(=O)N1CCC(NCc2ccccc2)CC1			500	2600	5.2				
CC(C)(C)OC(=O)N1CSC[C@H]1C(=O)N[C@@H](CSCC1CCCCC1)C(=O)N1CCC(Nc2ccccc2)CC1			660	540	0.82				
CC(C)(C)OC(=O)N1CSC[C@H]1C(=O)N[C@@H](CSCC1CCCCC1)C(=O)NCc1ccc(Oc2ccccc2)cc1	1700	12				> 100	5		
CC(C)(C)OC(=O)N1CSC[C@H]1C(=O)N[C@@H](CSCC1CCCCC1)C(=O)N1CCN(c2ccccc2)CC1	580	1.5	390						
CC(C)(C)OC(=O)N1CSC[C@H]1C(=O)N[C@@H](CSCC1CCCCC1)C(=O)NC1CCN(Cc2ccccc2)CC1			330	5000	15	10	3.5	30	75
CC(C)(C)OC(=O)N1CSC[C@H]1C(=O)N[C@@H](CSCC1CCCCC1)C(=O)NCCNCc1ccccc1	2400	6.3	380				2.8		
